From ChEMBL document CHEMBL4476883, “Hydroxy formamide derivatives and their use” (2017)

What was measured:
[1] = target: T1, Bone morphogenetic protein 1 (Homo sapiens, UniProt P13497); test: Inhibition of C-terminal FLAG-6x-His epitope tagged and N-terminal human RAGE signal sequence tagged human BMP1 (23 to 721 amino acids) expressed in CHO-E1A cells pre-incubated for 10 mins before promyostatin peptide substrate addition and measured after 60 mins using 0.5 nM BMP1 by FRET based assay; assay type: cell-based
T1 sequence (P13497 whole entry): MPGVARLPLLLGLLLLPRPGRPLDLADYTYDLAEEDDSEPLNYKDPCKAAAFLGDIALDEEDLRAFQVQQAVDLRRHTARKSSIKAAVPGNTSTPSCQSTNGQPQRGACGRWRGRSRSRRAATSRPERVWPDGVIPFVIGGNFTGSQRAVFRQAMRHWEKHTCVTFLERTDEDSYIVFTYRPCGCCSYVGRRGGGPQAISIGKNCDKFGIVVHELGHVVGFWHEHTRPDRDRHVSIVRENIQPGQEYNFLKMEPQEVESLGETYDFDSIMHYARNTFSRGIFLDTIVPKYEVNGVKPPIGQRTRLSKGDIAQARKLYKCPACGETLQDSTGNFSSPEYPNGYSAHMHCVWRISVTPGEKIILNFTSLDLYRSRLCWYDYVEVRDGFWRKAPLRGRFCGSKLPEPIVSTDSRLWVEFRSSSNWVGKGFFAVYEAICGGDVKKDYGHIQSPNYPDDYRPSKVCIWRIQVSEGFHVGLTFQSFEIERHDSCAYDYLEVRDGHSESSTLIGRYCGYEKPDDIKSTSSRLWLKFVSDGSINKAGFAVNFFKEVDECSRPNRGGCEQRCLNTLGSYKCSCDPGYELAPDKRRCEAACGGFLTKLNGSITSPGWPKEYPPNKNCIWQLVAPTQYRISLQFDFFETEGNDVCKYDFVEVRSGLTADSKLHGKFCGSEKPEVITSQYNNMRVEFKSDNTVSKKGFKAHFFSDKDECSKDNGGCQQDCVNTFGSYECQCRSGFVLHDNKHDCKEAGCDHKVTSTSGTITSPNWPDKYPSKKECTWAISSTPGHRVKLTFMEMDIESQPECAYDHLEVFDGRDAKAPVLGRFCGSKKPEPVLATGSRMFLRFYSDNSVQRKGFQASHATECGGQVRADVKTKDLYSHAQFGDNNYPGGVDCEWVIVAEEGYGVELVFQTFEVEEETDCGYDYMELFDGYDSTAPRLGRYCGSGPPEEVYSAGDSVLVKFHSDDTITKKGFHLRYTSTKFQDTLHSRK

[2] = target: T1, Bone morphogenetic protein 1; test: Inhibition of C-terminal FLAG-6x-His epitope tagged and N-terminal human RAGE signal sequence tagged human BMP1 (23 to 721 amino acids) expressed in CHO-E1A cells pre-incubated for 10 mins before promyostatin peptide substrate addition and measured after 30 mins using 50 nM BMP1 by FRET based assay; assay type: cell-based
Tolloid-like protein 1 = Tolloid-like protein 1 (Homo sapiens, UniProt O43897, I156V/N221S/V284A); test: Inhibition of recombinant human TLL1 I156V/N221S/V284A mutant expressed in CHOE1A cells pre-incubated for 10 mins before promyostatin peptide substrate addition and measured after 60 mins by FRET based assay; assay type: cell-based
Tolloid-like protein 1, sequence (O43897 148-1013 I156V/N221S/V284A limits assumed): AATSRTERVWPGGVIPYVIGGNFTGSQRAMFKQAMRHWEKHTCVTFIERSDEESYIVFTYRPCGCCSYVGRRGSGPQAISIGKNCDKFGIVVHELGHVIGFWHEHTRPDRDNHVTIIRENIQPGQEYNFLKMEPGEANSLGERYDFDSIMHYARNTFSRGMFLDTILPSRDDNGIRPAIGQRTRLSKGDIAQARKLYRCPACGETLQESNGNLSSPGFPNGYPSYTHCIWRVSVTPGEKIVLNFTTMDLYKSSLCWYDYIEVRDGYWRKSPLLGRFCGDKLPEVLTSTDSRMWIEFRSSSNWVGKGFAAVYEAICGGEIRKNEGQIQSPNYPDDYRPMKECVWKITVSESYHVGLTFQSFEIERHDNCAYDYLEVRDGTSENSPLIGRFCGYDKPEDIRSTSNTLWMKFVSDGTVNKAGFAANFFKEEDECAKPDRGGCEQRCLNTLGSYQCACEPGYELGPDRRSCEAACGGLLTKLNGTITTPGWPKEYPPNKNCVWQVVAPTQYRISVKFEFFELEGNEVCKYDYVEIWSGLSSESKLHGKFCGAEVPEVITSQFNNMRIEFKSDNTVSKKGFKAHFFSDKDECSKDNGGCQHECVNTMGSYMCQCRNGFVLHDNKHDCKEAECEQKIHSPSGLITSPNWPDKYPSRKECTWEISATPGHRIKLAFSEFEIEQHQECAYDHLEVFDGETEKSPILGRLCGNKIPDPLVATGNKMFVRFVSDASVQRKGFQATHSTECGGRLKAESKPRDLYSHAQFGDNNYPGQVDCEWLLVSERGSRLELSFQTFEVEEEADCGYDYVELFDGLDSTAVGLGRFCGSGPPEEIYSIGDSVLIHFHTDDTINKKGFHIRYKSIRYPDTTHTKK

Tolloid-like protein 2 = target: T2, Tolloid-like protein 2 (Homo sapiens, UniProt Q9Y6L7); test: Inhibition of C-terminal Avi-6x-His epitope tagged and N-terminal human RAGE signal sequence tagged recombinant human TLL2 (26 to 1015 amino acids) expressed in CHOE1A cells incubated for 60 mins with promyostatin peptide substrate by FRET based assay; assay type: cell-based
T2 sequence (Q9Y6L7 whole entry): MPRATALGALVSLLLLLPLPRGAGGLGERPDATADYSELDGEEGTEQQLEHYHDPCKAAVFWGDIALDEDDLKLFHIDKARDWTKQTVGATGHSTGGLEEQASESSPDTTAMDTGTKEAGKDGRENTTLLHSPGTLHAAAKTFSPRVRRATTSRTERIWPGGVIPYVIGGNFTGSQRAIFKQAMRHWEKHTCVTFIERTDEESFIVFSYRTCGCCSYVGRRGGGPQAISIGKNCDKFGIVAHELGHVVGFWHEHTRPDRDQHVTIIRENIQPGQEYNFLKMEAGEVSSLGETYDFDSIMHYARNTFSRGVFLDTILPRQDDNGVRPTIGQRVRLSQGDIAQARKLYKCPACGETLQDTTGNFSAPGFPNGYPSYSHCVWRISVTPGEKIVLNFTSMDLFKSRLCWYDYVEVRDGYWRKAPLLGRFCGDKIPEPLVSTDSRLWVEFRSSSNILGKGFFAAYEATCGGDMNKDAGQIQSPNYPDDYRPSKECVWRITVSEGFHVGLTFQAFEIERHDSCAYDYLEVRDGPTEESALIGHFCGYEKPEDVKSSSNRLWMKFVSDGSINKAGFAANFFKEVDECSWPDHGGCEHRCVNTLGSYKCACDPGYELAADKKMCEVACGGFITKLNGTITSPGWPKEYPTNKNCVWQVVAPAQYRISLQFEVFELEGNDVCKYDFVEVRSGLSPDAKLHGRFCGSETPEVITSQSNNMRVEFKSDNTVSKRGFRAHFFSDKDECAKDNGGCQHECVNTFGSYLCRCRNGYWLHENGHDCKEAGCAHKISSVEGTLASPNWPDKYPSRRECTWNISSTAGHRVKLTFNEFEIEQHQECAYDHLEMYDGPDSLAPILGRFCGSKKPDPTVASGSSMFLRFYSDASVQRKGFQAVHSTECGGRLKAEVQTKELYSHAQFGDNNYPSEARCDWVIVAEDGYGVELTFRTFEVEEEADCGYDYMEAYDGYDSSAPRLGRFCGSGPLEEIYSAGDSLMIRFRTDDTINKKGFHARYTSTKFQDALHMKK

[3] = Reduction in PICP levels in human cardiac fibroblasts incubated for 24 to 48 hrs by ELISA; assay type: functional

Structure (SMILES) | IC50 [1] [µM] | IC50 [2] [µM] | IC50 (Tolloid-like protein 1) [µM] | IC50 (Tolloid-like protein 2) [µM] | IC50 [3] [µM]
CCCCC[C@@H](C(=O)NCNC(=O)c1cccc(-c2ccc(C3(C(=O)O)CC3)cc2)n1)[C@@H](CC)N(O)C=O | < 0.126 | < 0.251 | < 0.398 | < 0.631 | < 20
CCCCC[C@H](CN(O)C=O)C(=O)NCNC(=O)c1cccc(-c2cccc(OC)c2)c1 | < 0.126 | < 0.251 | < 0.398 | < 0.631 | < 20
COc1cccc(-c2cccc(C(=O)NCNC(=O)[C@H](CC3CCCC3)CN(O)C=O)c2)c1 | < 0.126 | < 0.251 | < 0.398 | < 0.631 | < 20
CCCCC[C@@H](C(=O)NCNC(=O)c1cccc(-c2ccc(C(=O)O)c(OCC)c2)c1)[C@@H](CC)N(O)C=O | < 0.126 | < 0.251 | < 0.398 | < 0.631 | < 20
CCCCC[C@H](CN(O)C=O)C(=O)NCNC(=O)c1cccc(Oc2ccc(OC)nc2)c1 | < 0.126 | < 0.251 | < 0.398 | < 0.631 | < 20
CCCCC[C@H](CN(O)C=O)C(=O)NCNC(=O)c1cccc(-c2ncc(C)o2)c1 | < 0.126 | < 0.251 | < 0.398 | < 0.631 | < 20
CCCCC[C@H](CN(O)C=O)C(=O)NCNC(=O)c1cccc(-c2cccc(OC)c2)c1F | < 0.126 | < 0.251 | < 0.398 | < 0.631 | < 20
CCCCC[C@H](CN(O)C=O)C(=O)NCNC(=O)c1cccc(-c2cc(OC)ccc2F)c1F | < 0.126 | < 0.251 | < 0.398 | < 0.631 | < 20
O=CN(O)C[C@@H](CC1CCCC1)C(=O)NCNC(=O)c1cccc(-c2ccc(C(F)(F)F)cc2)c1 | < 0.126 | < 0.251 | < 0.398 | < 0.631 | < 20
CCCCC[C@@H](C(=O)NCNC(=O)c1cccc(-c2cc(OCC)cc(C(=O)N[C@@H](CC(=O)O)C(=O)O)c2)c1)[C@@H](CC)N(O)C=O | < 0.126 | < 0.251 | < 0.398 | < 0.631 | < 20
COc1ccccc1-c1cccc(C(=O)NCNC(=O)[C@H](CC2CCCC2)CN(O)C=O)c1 | < 0.126 | < 0.251 | < 0.398 | < 0.631 | < 20
CCCCC[C@@H](C(=O)NCNC(=O)c1cccc(-c2ccc(OC)c(C(=O)O)c2)n1)[C@@H](CC)N(O)C=O | < 0.126 | < 0.251 | < 0.398 | < 0.631 | < 20
CCCCC[C@@H](C(=O)NCNC(=O)c1cccc(-c2ccc(F)c(C(=O)O)c2)n1)[C@@H](CC)N(O)C=O | < 0.126 | < 0.251 | < 0.398 | < 0.631 | < 20
CCCCC[C@H](CN(O)C=O)C(=O)NCNC(=O)c1cccc(-c2ccnc(OC)n2)c1 | < 0.126 | < 0.251 | < 0.398 | < 0.631 | < 20
CCCCC[C@@H](C(=O)NCNC(=O)c1cccc(-c2ccc(C(=O)O)cc2C)n1)[C@@H](CC)N(O)C=O | < 0.126 | < 0.251 | < 0.398 | < 0.631 | < 20
CCCCC[C@H](CN(O)C=O)C(=O)NCNC(=O)c1cccc(-c2cnc(C)o2)c1 | < 0.126 | < 0.251 | < 0.398 | < 0.631 | < 20
CCCCC[C@H](CN(O)C=O)C(=O)NCNC(=O)c1cccc(-c2cc(OCC)cc(C(=O)O)c2)n1 | < 0.126 | < 0.251 | < 0.398 | < 0.631 | < 20
CCCCC[C@H](CN(O)C=O)C(=O)NCNC(=O)c1cccc(-c2nnn[nH]2)c1 | < 0.126 | < 0.251 | < 0.398 | < 0.631 | < 20
CCCCC[C@@H](C(=O)NCNC(=O)c1cccc(-c2ccc(P(=O)(O)O)c(OCC)c2)n1)[C@@H](CC)N(O)C=O | < 0.126 | < 0.251 | < 0.398 | < 0.631 | < 20
CCCCC[C@H](CN(O)C=O)C(=O)NCNC(=O)c1cccc(-c2nc(C)c(C)o2)c1 | < 0.126 | < 0.251 | < 0.398 | < 0.631 | < 20
CCCCC[C@@H](C(=O)NCNC(=O)c1cccc(-c2cccc(C(=O)O)c2C)n1)[C@@H](CC)N(O)C=O | < 0.126 | < 0.251 | < 0.398 | < 0.631 | < 20
O=CN(O)C[C@@H](CC1CCCC1)C(=O)NCNC(=O)c1cccc(-c2ccccc2)c1 | < 0.126 | < 0.251 | < 0.398 | < 0.631 | < 20
CCCCC[C@H](CN(O)C=O)C(=O)NCNC(=O)c1cccc(-c2ccccc2)c1 | < 0.126 | < 0.251 | < 0.398 | < 0.631 | < 20
CCCCC[C@H](CN(O)C=O)C(=O)NCNC(=O)c1cccc(-n2cc(C)cn2)c1 | < 0.126 | < 0.251 | < 0.398 | < 0.631 | < 20
CCCCC[C@@H](C(=O)NCNC(=O)c1cccc(-c2cc(OCC)cc(C(=O)O)c2)c1)[C@@H](CC)N(O)C=O | < 0.126 | < 0.251 | < 0.398 | < 0.631 | < 20
N#Cc1cccc(-c2cccc(C(=O)NCNC(=O)[C@H](CC3CCCC3)CN(O)C=O)c2)c1 | < 0.126 | < 0.251 | < 0.398 | < 0.631 | < 20
CCCCC[C@@H](C(=O)NCNC(=O)c1cccc(-c2cccc(OC)c2F)c1F)[C@@H](CC)N(O)C=O | < 0.126 | < 0.251 | < 0.398 | < 0.631 | < 20
O=CN(O)C[C@@H](CCc1ccccc1)C(=O)NCNC(=O)c1cccc(-c2cccc(B(O)O)c2)c1 | < 0.126 | < 0.251 | < 0.398 | < 0.631 | < 20
O=CN(O)C[C@@H](CC1CCCC1)C(=O)NCNC(=O)c1cccc(Oc2ccccc2)c1 | < 0.126 | < 0.251 | < 0.398 | < 0.631 | < 20
